Measured values taken from US20260183275A1, “SUBSTITUTED QUINOLONE COMPOUNDS USEFUL AS INHIBITORS OF TLR9” (Bristol-Myers Squibb Company, priority 2022, published 2026).

Columns and labels:
Assay type in all cases: cell-based
human TLR8 = target: T1, human TLR8 (Homo sapiens, UniProt Q9NR97); assay: TLR8 inhibition reporter assay (HEK-Blue cells, SEAP reporter); conditions: HEK-Blue cells overexpressing human TLR8; stimulated with R848 15.9 μM; SEAP read after 22 hour; dose range 0.05 nM-50 μM
T1 construct: host or cells: HEK-Blue cells
T1 sequence (Q9NR97 27-1041): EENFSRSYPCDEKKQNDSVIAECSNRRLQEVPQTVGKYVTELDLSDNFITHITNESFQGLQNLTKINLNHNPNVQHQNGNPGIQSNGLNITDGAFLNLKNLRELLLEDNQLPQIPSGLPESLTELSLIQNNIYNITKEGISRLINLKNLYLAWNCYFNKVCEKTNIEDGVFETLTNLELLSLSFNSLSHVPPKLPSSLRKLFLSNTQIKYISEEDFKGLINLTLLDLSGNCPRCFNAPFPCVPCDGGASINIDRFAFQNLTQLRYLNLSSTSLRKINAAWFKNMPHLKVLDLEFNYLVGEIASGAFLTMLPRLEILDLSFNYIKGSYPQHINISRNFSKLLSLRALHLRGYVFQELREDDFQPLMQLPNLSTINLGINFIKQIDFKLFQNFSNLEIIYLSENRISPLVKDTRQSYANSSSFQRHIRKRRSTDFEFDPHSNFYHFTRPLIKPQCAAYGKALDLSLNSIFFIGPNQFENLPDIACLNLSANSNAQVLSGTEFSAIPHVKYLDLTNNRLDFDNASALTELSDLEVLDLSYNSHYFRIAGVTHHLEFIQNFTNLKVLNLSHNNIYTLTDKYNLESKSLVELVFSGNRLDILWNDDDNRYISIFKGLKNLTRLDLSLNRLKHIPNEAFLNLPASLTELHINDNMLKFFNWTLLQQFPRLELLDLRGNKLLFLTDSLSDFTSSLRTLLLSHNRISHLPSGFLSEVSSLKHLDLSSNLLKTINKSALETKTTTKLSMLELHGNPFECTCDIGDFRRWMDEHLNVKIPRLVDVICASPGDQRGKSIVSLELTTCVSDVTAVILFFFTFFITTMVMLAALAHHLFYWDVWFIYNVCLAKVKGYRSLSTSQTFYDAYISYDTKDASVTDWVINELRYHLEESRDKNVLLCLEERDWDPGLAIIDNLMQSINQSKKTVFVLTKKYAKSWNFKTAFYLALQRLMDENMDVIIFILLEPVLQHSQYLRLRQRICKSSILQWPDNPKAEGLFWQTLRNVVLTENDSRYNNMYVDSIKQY
Procedure: (§1) HEK-Blue™-cells (Invivogen) overexpressing human TLR7, TLR8 or TLR9 receptors were used for screening inhibitors of these receptors using an inducible SEAP (secreted embryonic alkaline phosphatase) reporter gene under the control of the IFN-β minimal promoter fused to five NF-κB and AP-1-binding sites. Briefly, cells are seeded into Greiner 384 well plates (15000 cells per well for TLR7, 20,000 for TLR8 and 25,000 for TLR9) and then treated with test compounds in DMSO to yield a final dose response concentration range of 0.05 nM-50 μM. After a 30 minute compound pre-treatment at room temperature, the cells are then stimulated with a TLR7 ligand (gardiquimod at a final concentration of 7.5 μM), TLR8 ligand (R848 at a final concentration of 15.9 μM) or TLR9 ligand (ODN2006 at a final concentration of 5 nM) to activate NF-κB and AP-1 which induce the production of SEAP. After a 22 hour incubation at 37° C., 5% CO2, SEAP levels are determined with the addition of HEK-Blue™ Detection reagent (Invivogen), a cell culture medium that allows for detection of SEAP, according to manufacturer's specifications. The percent inhibition is determined as the % reduction in the HEK-Blue signal present in wells treated with agonist plus DMSO alone compared to wells treated with a known inhibitor.

human TLR9 = target: T2, human TLR9 (Homo sapiens, UniProt Q9NR96); assay: TLR9 inhibition reporter assay (HEK-Blue cells, SEAP reporter); conditions: HEK-Blue cells overexpressing human TLR9; stimulated with ODN2006 5 nM; SEAP read after 22 hour; dose range 0.05 nM-50 μM
T2 construct: host or cells: HEK-Blue cells
T2 sequence (Q9NR96 26-1032): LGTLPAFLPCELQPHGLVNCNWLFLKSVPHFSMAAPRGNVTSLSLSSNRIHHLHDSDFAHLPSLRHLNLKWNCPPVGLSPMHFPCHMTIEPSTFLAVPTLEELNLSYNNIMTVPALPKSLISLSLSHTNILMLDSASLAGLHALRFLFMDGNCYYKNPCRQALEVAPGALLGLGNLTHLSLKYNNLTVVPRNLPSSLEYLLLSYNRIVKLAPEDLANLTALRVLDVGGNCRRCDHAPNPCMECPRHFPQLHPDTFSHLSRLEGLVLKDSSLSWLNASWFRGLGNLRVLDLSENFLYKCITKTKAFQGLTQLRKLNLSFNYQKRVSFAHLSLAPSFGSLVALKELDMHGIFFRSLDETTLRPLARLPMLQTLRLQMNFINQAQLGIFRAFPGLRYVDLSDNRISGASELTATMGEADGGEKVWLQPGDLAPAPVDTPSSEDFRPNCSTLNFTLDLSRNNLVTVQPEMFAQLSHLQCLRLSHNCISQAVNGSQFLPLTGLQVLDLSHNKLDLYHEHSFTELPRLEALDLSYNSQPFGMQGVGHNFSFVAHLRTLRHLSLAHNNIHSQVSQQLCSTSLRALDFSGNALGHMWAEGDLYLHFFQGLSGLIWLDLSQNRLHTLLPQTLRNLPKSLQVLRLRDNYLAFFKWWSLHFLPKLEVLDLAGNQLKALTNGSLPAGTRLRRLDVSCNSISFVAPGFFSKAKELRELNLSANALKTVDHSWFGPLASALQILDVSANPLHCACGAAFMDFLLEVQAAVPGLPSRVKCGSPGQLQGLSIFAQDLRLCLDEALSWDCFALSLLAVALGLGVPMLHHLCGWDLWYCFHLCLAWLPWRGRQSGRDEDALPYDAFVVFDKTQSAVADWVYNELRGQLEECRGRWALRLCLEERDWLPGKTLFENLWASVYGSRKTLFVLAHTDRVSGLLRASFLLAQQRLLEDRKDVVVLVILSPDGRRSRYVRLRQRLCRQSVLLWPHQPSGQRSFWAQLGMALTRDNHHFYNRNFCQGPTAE
Procedure: as §1

human TLR7 = target: T3, human TLR7 (Homo sapiens, UniProt Q9NYK1); assay: TLR7 inhibition reporter assay (HEK-Blue cells, SEAP reporter); conditions: HEK-Blue cells overexpressing human TLR7; stimulated with gardiquimod 7.5 μM; SEAP read after 22 hour; dose range 0.05 nM-50 μM
T3 construct: host or cells: HEK-Blue cells
T3 sequence (Q9NYK1 27-1049): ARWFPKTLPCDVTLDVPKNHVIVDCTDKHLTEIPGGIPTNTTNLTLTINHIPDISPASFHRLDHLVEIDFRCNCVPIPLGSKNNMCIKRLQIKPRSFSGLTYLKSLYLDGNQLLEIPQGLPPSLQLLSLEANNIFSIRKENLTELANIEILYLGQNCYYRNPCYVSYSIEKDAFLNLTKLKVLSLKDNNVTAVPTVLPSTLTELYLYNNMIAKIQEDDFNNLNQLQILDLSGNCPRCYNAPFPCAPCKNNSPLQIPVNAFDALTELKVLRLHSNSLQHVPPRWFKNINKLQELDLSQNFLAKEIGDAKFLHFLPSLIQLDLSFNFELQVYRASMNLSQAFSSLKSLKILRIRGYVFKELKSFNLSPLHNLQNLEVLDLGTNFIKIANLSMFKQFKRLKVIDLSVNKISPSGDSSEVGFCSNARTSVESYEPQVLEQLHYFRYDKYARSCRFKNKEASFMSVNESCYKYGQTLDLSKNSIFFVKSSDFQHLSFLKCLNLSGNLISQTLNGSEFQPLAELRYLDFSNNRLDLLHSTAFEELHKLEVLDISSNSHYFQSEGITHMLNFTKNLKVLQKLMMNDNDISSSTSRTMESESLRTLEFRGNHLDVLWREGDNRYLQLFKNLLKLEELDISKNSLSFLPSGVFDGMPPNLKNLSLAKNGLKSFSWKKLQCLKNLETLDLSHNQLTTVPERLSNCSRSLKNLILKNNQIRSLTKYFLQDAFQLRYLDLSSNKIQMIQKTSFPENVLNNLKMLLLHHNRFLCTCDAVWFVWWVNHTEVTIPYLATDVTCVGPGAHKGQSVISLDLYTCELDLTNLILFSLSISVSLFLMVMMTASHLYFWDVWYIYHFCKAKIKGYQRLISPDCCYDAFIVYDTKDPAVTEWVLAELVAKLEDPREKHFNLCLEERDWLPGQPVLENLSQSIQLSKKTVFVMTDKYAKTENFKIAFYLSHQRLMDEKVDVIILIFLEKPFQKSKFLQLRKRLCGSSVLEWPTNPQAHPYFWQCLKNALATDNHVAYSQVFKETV
Procedure: as §1

| Structure (SMILES) | IC50 (human TLR8) | IC50 (human TLR9) | IC50 (human TLR7) |
| --- | --- | --- | --- |
| CC(C)N1CCN(c2ccc(-c3ccc4[nH]c(=O)c(-c5cc(F)ccc5F)cc4c3)cc2)CC1 [Example 20, 3-(2,5-difluorophenyl)-6-{4-[4-(propan-2-vi)piperazin-1-yl]phenyl}-1,2-dihydroquinolin-2-one] | 5410 nM | 203 nM | 1560 nM |
| CC(C)N1CCN(c2ccc(-c3ccc4[nH]c(=O)c(-c5cccc(OC(F)(F)F)c5)cc4c3)cc2)CC1 [Example 46, 6-{4-[4-(propan-2-yl)piperazin-1-yl]phenyl}-3-[3-(trifluoromethoxy)phenyl]-1,2-dihydroquinolin-2-one] | ≥ 50000 nM | 781 nM | ≥ 50000 nM |
| CC(C)N1CCN(c2ccc(-c3ccc4[nH]c(=O)c(-c5c(F)c(F)c(F)c(F)c5F)cc4c3)cc2)CC1 [Example 40, 3-(2,3,4,5,6-pentafluorophenyl)-6-{4-[4-(propan-2-yl)piperazin-1-yl]phenyl}-1,2-dihydroquinolin-2-one] | ≥ 50000 nM | 399 nM | ≥ 50000 nM |
| CC(C)N1CCN(c2ccc(-c3ccc4[nH]c(=O)c(-c5ccc(F)cc5)cc4c3)cc2)CC1 [Example 31, 3-(4-fluorophenyl)-6-{4-[1-(propan-2-yl)piperazin-1-yl]phenyl}-1,2-dihydroquinolin-2-one] | 16700 nM | 286 nM | 42600 nM |
| CC(C)N1CCN(c2ccc(-c3ccc4[nH]c(=O)c(-c5ccc(N6CCCC6=O)cc5)cc4c3)cc2)CC1 [Example 56, 3-[4-(2-oxopyrrolidin-1-yl)phenyl]-6-{4-[4-(propan-2-yl)piperazin-1-yl]phenyl}-1,2-dihydroquinolin-2-one] | ≥ 50000 nM | 400 nM | 5980 nM |
| CC(C)N1CCN(c2ccc(-c3ccc4[nH]c(=O)c(-c5ccc(OC(F)F)cc5)cc4c3)cc2)CC1 [Example 36, 3-[4-(difluoromethoxy)phenyl]-6-{4-[4-(propan-2-yl)piperazin-1-yl]phenyl}-1,2-dihydroquinolin-2-one] | ≥ 50000 nM | 344 nM | ≥ 50000 nM |
| CC(C)N1CCN(c2ccc(-c3ccc4[nH]c(=O)c(-c5cccc(F)c5F)cc4c3)cc2)CC1 [Example 24, 3-(2,3-difluorophenyl)-6-{4-[4-(propan-2-yl)piperazin-1-yl]phenyl}-1,2-dihydroquinolin-2-one] | 15200 nM | 224 nM | 2000 nM |
| CC(C)N1CCC(c2ccc(-c3ccc4[nH]c(=O)c(-c5ccc(NS(C)(=O)=O)cc5)cc4c3)cc2)CC1 [Example 83, N-[4-(2-oxo-6-{4-[1-(propan-2-yl)piperidin-4-yl]phenyl}-1,2-dihydroquinolin-3-yl)phenyl]methanesulfonamide] | ≥ 50000 nM | 354 nM | 369 nM |
| CNC(=O)Nc1ccc(-c2cc3cc(-c4ccc(N5CCN(C(C)C)CC5)cc4)ccc3[nH]c2=O)cc1 [Example 49, 3-methyl-1-[4-(2-oxo-6-{4-[4-(propan-2-yl)piperazin-1-yl]phenyl}-1,2-dihydroquinolin-3-yl)phenyl]urea] | ≥ 50000 nM | 239 nM | 5420 nM |
| Cn1c(=O)c(-c2ccccc2)cc2cc(-c3ccc(C4CCN(C5COC5)CC4)cc3)ccc21 [Example 100, 1-methyl-6-{4-[1-(oxetan-3-yl)piperidin-4-yl]phenyl}-3-phenyl-1,2-dihydroquinolin-2-one] | 1900 nM | 2270 nM | ≥ 50000 nM |
| CCn1c(=O)c(-c2ccc(S(C)(=O)=O)cc2)cc2cc(-c3ccc(C4CCN(C(C)C)CC4)cc3)ccc21 [Example 79, 1-ethyl-3-(4-methanesulfonylphenyl)-6-{4-[1-(propan-2-yl)piperidin-4-yl]phenyl}-1,2-dihydroquinolin-2-one] | 25800 nM | 287 nM | 5330 nM |
| CCc1c(-c2ccc(OC)c(OC)c2)c(=O)[nH]c2ccc(C3CCN(C4CCN(C(C)C)CC4)CC3)cc12 [Example 63, 3-(3,4-dimethoxyphenyl)-4-ethyl-6-[1′-(propan-2-yl)-[1,4′-bipiperidine]-4-yl]-1,2-dihydroquinolin-2-one] | 11000 nM | 27 nM | 2810 nM |
